# Laboratory results: the supplement of paper PMC10307832
# Tests used:
# Assay in all cases: relative viability (nuclei count vs DMSO), 5 days (fraction); higher = more cells survive
# NCI-H1793 = test system: NCI-H1793
# Outline: (§1)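 Nuclei were stained with Hoechst during a one-step fixation (final 0.05% Triton X-100, 1% formaldehyde, 1 ug/ml Hoechst) carried out 5 days after dosing, then counted on 4× images. The cells, lung cancer lines in 1536-well plates, had been dosed by pin tool the day after seeding with one drug alone or a fixed anchor-drug dose plus five library-drug doses (not always all listed) in √10 steps. Relative viability is the nuclei count in treated wells divided by that in vehicle wells, and each value is the median of duplicate plates.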
# NCI-H1437 = test system: NCI-H1437
# Outline: as §1
# HCC-366 = test system: HCC-366
# Outline: as §1
# NCI-H1650 = test system: NCI-H1650
# Outline: as §1
# NCI-H460 = test system: NCI-H460
# Outline: as §1
# NCI-H2023 = test system: NCI-H2023
# Outline: as §1
# LU99A = test system: LU99A
# Outline: as §1
# NCI-H441 = test system: NCI-H441
# Outline: as §1
# NCI-H1355 = test system: NCI-H1355
# Outline: as §1
# LOU-NH91 = test system: LOU-NH91
# Outline: as §1
# NCI-H838 = test system: NCI-H838
# Outline: as §1
# COR-L23 = test system: COR-L23
# Outline: as §1
# NCI-H1651 = test system: NCI-H1651
# Outline: as §1
# NCI-H1734 = test system: NCI-H1734
# Outline: as §1
# NCI-H1975 = test system: NCI-H1975
# Outline: as §1
# NCI-H358 = test system: NCI-H358
# Outline: as §1
# BEN = test system: BEN
# Outline: as §1
# CAL-12T = test system: CAL-12T
# Outline: as §1
# NCI-H2342 = test system: NCI-H2342
# Outline: as §1
# NCI-H2085 = test system: NCI-H2085
# Outline: as §1
# SK-LU-1 = test system: SK-LU-1
# Outline: as §1
smiles,measurement,setting,value
COc1nc(C)cnc1NS(=O)(=O)c1cccnc1-c1ccc(-c2nnco2)cc1 [Zibotentan] + CC(=O)Nc1cccc(-n2c(=O)n(C3CC3)c(=O)c3c(Nc4ccc(I)cc4F)n(C)c(=O)c(C)c32)c1 [Trametinib] (partner 0.02 µM),relative viability,NCI-H1793; first compound 0.08 µM,0.42
same,relative viability,NCI-H1793; first compound 0.253 µM,0.477
same,relative viability,NCI-H1793; first compound 0.8 µM,0.424
same,relative viability,NCI-H1793; first compound 2.53 µM,0.47
same,relative viability,NCI-H1437; first compound 0.08 µM,0.533
same,relative viability,NCI-H1437; first compound 0.253 µM,0.541
same,relative viability,NCI-H1437; first compound 0.8 µM,0.455
same,relative viability,NCI-H1437; first compound 2.53 µM,0.496
same,relative viability,HCC-366; first compound 0.08 µM,0.378
same,relative viability,HCC-366; first compound 0.253 µM,0.318
same,relative viability,HCC-366; first compound 0.8 µM,0.361
same,relative viability,HCC-366; first compound 2.53 µM,0.383
same,relative viability,NCI-H1650; first compound 0.08 µM,0.533
same,relative viability,NCI-H1650; first compound 0.8 µM,0.563
same,relative viability,NCI-H1650; first compound 2.53 µM,0.557
same,relative viability,NCI-H460; first compound 0.08 µM,0.159
same,relative viability,NCI-H460; first compound 0.253 µM,0.0304
same,relative viability,NCI-H460; first compound 0.8 µM,0.0981
same,relative viability,NCI-H460; first compound 2.53 µM,0.196
same,relative viability,NCI-H2023; first compound 0.08 µM,0.631
same,relative viability,NCI-H2023; first compound 0.8 µM,0.614
same,relative viability,NCI-H2023; first compound 2.53 µM,0.558
same,relative viability,LU99A; first compound 0.08 µM,0.598
same,relative viability,LU99A; first compound 0.253 µM,0.547
same,relative viability,LU99A; first compound 0.8 µM,0.537
same,relative viability,LU99A; first compound 2.53 µM,0.585
same,relative viability,NCI-H441; first compound 0.08 µM,0.454
same,relative viability,NCI-H441; first compound 0.253 µM,0.408
same,relative viability,NCI-H441; first compound 0.8 µM,0.544
same,relative viability,NCI-H441; first compound 2.53 µM,0.471
same,relative viability,NCI-H1355; first compound 0.08 µM,0.399
same,relative viability,NCI-H1355; first compound 0.253 µM,0.437
same,relative viability,NCI-H1355; first compound 0.8 µM,0.402
same,relative viability,NCI-H1355; first compound 2.53 µM,0.438
same,relative viability,LOU-NH91; first compound 0.08 µM,0.777
same,relative viability,LOU-NH91; first compound 0.253 µM,0.814
same,relative viability,LOU-NH91; first compound 0.8 µM,0.817
same,relative viability,LOU-NH91; first compound 2.53 µM,0.816
same,relative viability,NCI-H838; first compound 0.08 µM,0.525
same,relative viability,NCI-H838; first compound 0.253 µM,0.454
same,relative viability,NCI-H838; first compound 0.8 µM,0.487
same,relative viability,NCI-H838; first compound 2.53 µM,0.508
same,relative viability,COR-L23; first compound 0.08 µM,0.573
same,relative viability,COR-L23; first compound 0.253 µM,0.531
same,relative viability,COR-L23; first compound 0.8 µM,0.831
same,relative viability,COR-L23; first compound 2.53 µM,0.555
same,relative viability,NCI-H1651; first compound 0.08 µM,0.907
same,relative viability,NCI-H1651; first compound 0.253 µM,0.794
same,relative viability,NCI-H1651; first compound 0.8 µM,0.832
same,relative viability,NCI-H1651; first compound 2.53 µM,0.803
same,relative viability,NCI-H1734; first compound 0.08 µM,0.721
same,relative viability,NCI-H1734; first compound 0.253 µM,0.705
same,relative viability,NCI-H1734; first compound 0.8 µM,0.647
same,relative viability,NCI-H1734; first compound 2.53 µM,0.733
same,relative viability,NCI-H1975; first compound 0.08 µM,0.336
same,relative viability,NCI-H1975; first compound 0.253 µM,0.355
same,relative viability,NCI-H1975; first compound 0.8 µM,0.358
same,relative viability,NCI-H1975; first compound 2.53 µM,0.34
same,relative viability,NCI-H358; first compound 0.08 µM,0.15
same,relative viability,NCI-H358; first compound 0.253 µM,0.109
same,relative viability,NCI-H358; first compound 2.53 µM,0.145
same,relative viability,BEN; first compound 0.08 µM,1.04
same,relative viability,BEN; first compound 0.253 µM,0.926
same,relative viability,BEN; first compound 0.8 µM,0.832
same,relative viability,BEN; first compound 2.53 µM,0.979
same,relative viability,CAL-12T; first compound 0.08 µM,0.34
same,relative viability,CAL-12T; first compound 0.253 µM,0.303
same,relative viability,CAL-12T; first compound 0.8 µM,0.349
same,relative viability,CAL-12T; first compound 2.53 µM,0.337
same,relative viability,NCI-H2342; first compound 0.08 µM,0.848
same,relative viability,NCI-H2342; first compound 0.253 µM,0.78
same,relative viability,NCI-H2342; first compound 0.8 µM,0.844
same,relative viability,NCI-H2342; first compound 2.53 µM,1.16
same,relative viability,NCI-H2085; first compound 0.08 µM,0.533
same,relative viability,NCI-H2085; first compound 0.253 µM,0.448
same,relative viability,NCI-H2085; first compound 0.8 µM,0.541
same,relative viability,NCI-H2085; first compound 2.53 µM,0.489
same,relative viability,SK-LU-1; first compound 0.08 µM,0.503
same,relative viability,SK-LU-1; first compound 0.253 µM,0.472
same,relative viability,SK-LU-1; first compound 0.8 µM,0.451
same,relative viability,SK-LU-1; first compound 2.53 µM,0.458
COc1nc(C)cnc1NS(=O)(=O)c1cccnc1-c1ccc(-c2nnco2)cc1 [Zibotentan] + CC(=O)c1c(C)c2cnc(Nc3ccc(N4CCNCC4)cn3)nc2n(C2CCCC2)c1=O [Palbociclib] (partner 0.5 µM),relative viability,NCI-H1793; first compound 0.08 µM,0.362
same,relative viability,NCI-H1793; first compound 0.253 µM,0.378
same,relative viability,NCI-H1793; first compound 0.8 µM,0.287
same,relative viability,NCI-H1793; first compound 2.53 µM,0.296
same,relative viability,NCI-H1437; first compound 0.08 µM,0.327
same,relative viability,NCI-H1437; first compound 0.253 µM,0.296
same,relative viability,NCI-H1437; first compound 0.8 µM,0.288
same,relative viability,NCI-H1437; first compound 2.53 µM,0.304
same,relative viability,HCC-366; first compound 0.08 µM,0.387
same,relative viability,HCC-366; first compound 0.253 µM,0.285
same,relative viability,HCC-366; first compound 0.8 µM,0.383
same,relative viability,HCC-366; first compound 2.53 µM,0.4
same,relative viability,NCI-H1650; first compound 0.08 µM,0.335
same,relative viability,NCI-H1650; first compound 0.8 µM,0.357
same,relative viability,NCI-H1650; first compound 2.53 µM,0.336
same,relative viability,NCI-H460; first compound 0.08 µM,0.157
same,relative viability,NCI-H460; first compound 0.253 µM,0.0391
same,relative viability,NCI-H460; first compound 0.8 µM,0.139
same,relative viability,NCI-H460; first compound 2.53 µM,0.25
same,relative viability,NCI-H2023; first compound 0.08 µM,0.409
same,relative viability,NCI-H2023; first compound 0.8 µM,0.355
same,relative viability,NCI-H2023; first compound 2.53 µM,0.356
same,relative viability,LU99A; first compound 0.08 µM,0.394
same,relative viability,LU99A; first compound 0.253 µM,0.442
same,relative viability,LU99A; first compound 0.8 µM,0.462
same,relative viability,LU99A; first compound 2.53 µM,0.402
same,relative viability,NCI-H441; first compound 0.08 µM,0.237
same,relative viability,NCI-H441; first compound 0.253 µM,0.197
same,relative viability,NCI-H441; first compound 0.8 µM,0.254
same,relative viability,NCI-H441; first compound 2.53 µM,0.24
same,relative viability,NCI-H1355; first compound 0.08 µM,0.407
same,relative viability,NCI-H1355; first compound 0.253 µM,0.418
same,relative viability,NCI-H1355; first compound 0.8 µM,0.388
same,relative viability,NCI-H1355; first compound 2.53 µM,0.435
same,relative viability,LOU-NH91; first compound 0.08 µM,0.483
same,relative viability,LOU-NH91; first compound 0.253 µM,0.544
same,relative viability,LOU-NH91; first compound 0.8 µM,0.504
same,relative viability,LOU-NH91; first compound 2.53 µM,0.476
same,relative viability,NCI-H838; first compound 0.08 µM,0.227
same,relative viability,NCI-H838; first compound 0.253 µM,0.207
same,relative viability,NCI-H838; first compound 0.8 µM,0.191
same,relative viability,NCI-H838; first compound 2.53 µM,0.233
same,relative viability,COR-L23; first compound 0.08 µM,0.338
same,relative viability,COR-L23; first compound 0.253 µM,0.225
same,relative viability,COR-L23; first compound 0.8 µM,0.366
same,relative viability,COR-L23; first compound 2.53 µM,0.322
same,relative viability,NCI-H1651; first compound 0.08 µM,0.521
same,relative viability,NCI-H1651; first compound 0.253 µM,0.522
same,relative viability,NCI-H1651; first compound 0.8 µM,0.48
same,relative viability,NCI-H1651; first compound 2.53 µM,0.492
same,relative viability,NCI-H1734; first compound 0.08 µM,0.337
same,relative viability,NCI-H1734; first compound 0.253 µM,0.32
same,relative viability,NCI-H1734; first compound 0.8 µM,0.374
same,relative viability,NCI-H1734; first compound 2.53 µM,0.407
same,relative viability,NCI-H1975; first compound 0.08 µM,0.517
same,relative viability,NCI-H1975; first compound 0.253 µM,0.526
same,relative viability,NCI-H1975; first compound 0.8 µM,0.553
same,relative viability,NCI-H1975; first compound 2.53 µM,0.596
same,relative viability,NCI-H358; first compound 0.08 µM,0.152
same,relative viability,NCI-H358; first compound 0.253 µM,0.117
same,relative viability,NCI-H358; first compound 2.53 µM,0.125
same,relative viability,BEN; first compound 0.08 µM,0.496
same,relative viability,BEN; first compound 0.253 µM,0.493
same,relative viability,BEN; first compound 0.8 µM,0.451
same,relative viability,BEN; first compound 2.53 µM,0.44
same,relative viability,CAL-12T; first compound 0.08 µM,0.625
same,relative viability,CAL-12T; first compound 0.253 µM,0.365
same,relative viability,CAL-12T; first compound 0.8 µM,0.629
same,relative viability,CAL-12T; first compound 2.53 µM,0.508
same,relative viability,NCI-H2342; first compound 0.08 µM,0.507
same,relative viability,NCI-H2342; first compound 0.253 µM,0.557
same,relative viability,NCI-H2342; first compound 0.8 µM,0.558
same,relative viability,NCI-H2342; first compound 2.53 µM,0.506
same,relative viability,NCI-H2085; first compound 0.08 µM,0.47
same,relative viability,NCI-H2085; first compound 0.253 µM,0.466
same,relative viability,NCI-H2085; first compound 0.8 µM,0.496
same,relative viability,NCI-H2085; first compound 2.53 µM,0.47
same,relative viability,SK-LU-1; first compound 0.08 µM,0.416
same,relative viability,SK-LU-1; first compound 0.253 µM,0.389
same,relative viability,SK-LU-1; first compound 0.8 µM,0.367
same,relative viability,SK-LU-1; first compound 2.53 µM,0.367
